US6569881B1, “Substituted benzimidazole, the production thereof and the use thereof as means against parasitic protozoa” (Bayer Aktiengesellschaft, priority 1999, dated 2003)

Assays:
Format in all cases: in vivo, chicken chicks
[1] = test system: Eimeria acervulina, Eimeria maxima and Eimeria tenella; assay: Cage experiments coccidiosis/chicks, mixed experimental infection; conditions: for dropping scores / lesion score: grade 0 to 6
Description: (§1) The efficacy of the compounds according to the invention can be confirmed, for example, in cage experiments using the following experimental arrangement, in which the animals are treated with the respective individual components and with the mixtures of the individual components.
(§2) An active compound-containing feed is prepared in such a way that the required amount of active compound is thoroughly mixed with a nutritionally balanced animal feed, e.g. with the chick feed indicated below.
(§3) 8 to 12 day-old male chicken chicks raised under coccidea-free conditions (e.g. LSL Brinkschulte/Senden) receive the compounds according to the invention (test substances) from 3 days before (day -3) the infection (=a.i.) until 8 (9) days after the infection (=p.i.) with the feed in the concentration indicated in ppm. Three animals are kept in each cage. Per dose, one to a number of groups of this type are employed. Infection is carried out by means of a stomach tube directly into the crop using approximately 100,000 sporulated oocysts of Eimeria acervulina and with in each case approximately 30,000 oocysts of E. maxima and 40,000 sporulated oocysts of E. tenella. These are highly virulent strains. The exact infectious dose is adjusted such that if possible one of three experimentally infected untreated chicks dies due to infection. For the assessment of the efficacy, the following criteria are taken into consideration: weight increase from the start of the experiment to the end of the experiment, death rate due to infection, macroscopic assessment of the faeces with respect to diarrhoea and excretion of blood on days 5 and 7 p.i. (grade 0 to 6), macroscopic grade of the intestinal mucous membrane, in particular of the cecums (grade 0 to 6) and the oocyst excretion and also the proportion (in %) of the oocysts sporulating within 24 hours. The number of oocysts in the faeces was determined with the aid of the McMaster counting chamber (see Engelbrecht and coworkers “Parasitologische Arbeitsmethoden in Medizin und Veterinärmedizin, [Parasitological working methods in medicine and veterinary medicine] Akademie-Verlag, Berlin (1965)). The individual findings are related to the untreated noninfected control groups and an overall grade is calculated (cf. A. Haberkorn (1986), pp. 263 to 270 in Research in Avian Coccidiosis ed L. R. McDougald, L. P. Joyner, P. L. Long Proceedings of the Georgia Coccidiosis Conference Nov, 18-20, 1985 Athens/Ga. USA).
In the column “ppm”, the concentration of the active compound employed in the feed is indicated in ppm.
In the column “mortality”, the percentage of the animals which have died is indicated under % and the number of the animals which have died/animals employed in the experiment is indicated under n.
In the column “weight % of not inf. control”, the ratio of the weight of the treated animals to the weight of the noninfected control group is indicated.
(§4) In the columns “dropping scores”, “lesion score” and “oocyst control”, individual details of the action are given.
In the column “% efficacy”, the overall rating is assessed; 0% means no action, 100% means complete action.

Eimeria maxima = assay: Cage experiments coccidiosis/chicks, Eimeria maxima part of the mixed infection; conditions: for Efficacy against Eimeria maxima (grade): second symbol of cell; as to Efficacy against Eimeria maxima (grade): key: 2 = complete action; 1 = weak action; 0 = inactive; D = death
Description: as §1, §2, §3, §4

Eimeria acervulina = assay: Cage experiments coccidiosis/chicks, Eimeria acervulina part of the mixed infection; conditions: for Efficacy against Eimeria acervulina (grade): first symbol of cell; as to Efficacy against Eimeria acervulina (grade): key: 2 = complete action; 1 = weak action; 0 = inactive; D = death
Description: as §1, §2, §3, §4

Eimeria tenella = assay: Cage experiments coccidiosis/chicks, Eimeria tenella part of the mixed infection; conditions: for Efficacy against Eimeria tenella (grade): third symbol of cell; as to Efficacy against Eimeria tenella (grade): key: 2 = complete action; 1 = weak action; 0 = inactive; D = death
Description: as §1, §2, §3, §4

[2] = 5 ppm in feed, listed as Ex. 15
[3] = 10 ppm in feed, listed as Ex. 15

## Cc1oc(=O)oc1Cn1c(C(F)(F)F)nc2c(Cl)cc3c(c21)OC(F)(F)C(F)(F)O3 [Example 15]
[1]; 2.5 ppm in feed
  % efficacy tot.: 43%
  mortality %: 0%
  mortality n (died/employed): 0/3
  oocyst in % of inf. control tot.: 48%
  weight % of not inf. control: 80%
  dropping scores: 1
  lesion score: 6
[1]; 5 ppm in feed
  % efficacy tot.: 75%
  mortality %: 0%
  mortality n (died/employed): 0/3
  oocyst in % of inf. control tot.: 1%
  weight % of not inf. control: 85%
  dropping scores: 6
  lesion score: 1
[1]; [2]
  lesion score: 6
  % efficacy tot.: 23%
  oocyst in % of inf. control tot.: 31%
  weight % of not inf. control: 75%
[1]; 7.5 ppm in feed
  % efficacy tot.: 60%
  mortality %: 0%
  mortality n (died/employed): 0/3
  oocyst in % of inf. control tot.: 13%
  weight % of not inf. control: >100%
  dropping scores: 6
  lesion score: 2
[1]; 10 ppm in feed
  % efficacy tot.: 91%
  mortality %: 0%
  mortality n (died/employed): 0/3
  oocyst in % of inf. control tot.: 0%
  weight % of not inf. control: 82%
  dropping scores: 0
  lesion score: 0
[1]; [3]
  lesion score: 1
  % efficacy tot.: 89%
  oocyst in % of inf. control tot.: 1%
  weight % of not inf. control: 92%
[1]; 25 ppm in feed
  mortality %: 100%
  mortality n (died/employed): 3/3
  dropping scores: 0
Eimeria maxima; 2.5 ppm in feed
  oocyst in % of inf. control max.: 0%
Eimeria maxima; 5 ppm in feed
  oocyst in % of inf. control max.: 2%
Eimeria maxima; [2]
  oocyst in % of inf. control max.: 0%
Eimeria maxima; 7.5 ppm in feed
  oocyst in % of inf. control max.: 0%
Eimeria maxima; 10 ppm in feed
  oocyst in % of inf. control max.: 0%
Eimeria maxima; Dose 5 ppm
  Efficacy against Eimeria maxima (grade): 0
Eimeria maxima; Dose 10 ppm
  Efficacy against Eimeria maxima (grade): 1
Eimeria maxima; Dose 25 ppm
  Efficacy against Eimeria maxima (grade): 2
Eimeria acervulina; 2.5 ppm in feed
  oocyst in % of inf. control ac.: 48%
Eimeria acervulina; 5 ppm in feed
  oocyst in % of inf. control ac.: 2%
Eimeria acervulina; [2]
  oocyst in % of inf. control ac.: 49%
Eimeria acervulina; 7.5 ppm in feed
  oocyst in % of inf. control ac.: 16%
Eimeria acervulina; 10 ppm in feed
  oocyst in % of inf. control ac.: 0%
Eimeria acervulina; [3]
  oocyst in % of inf. control ac.: 2%
Eimeria acervulina; Dose 5 ppm
  Efficacy against Eimeria acervulina (grade): 1
Eimeria acervulina; Dose 10 ppm
  Efficacy against Eimeria acervulina (grade): 2
Eimeria acervulina; Dose 25 ppm
  Efficacy against Eimeria acervulina (grade): 2
Eimeria tenella; 2.5 ppm in feed
  oocyst in % of inf. control ten.: 48%
Eimeria tenella; 5 ppm in feed
  oocyst in % of inf. control ten.: 0%
Eimeria tenella; [2]
  oocyst in % of inf. control ten.: 23%
Eimeria tenella; 7.5 ppm in feed
  oocyst in % of inf. control ten.: 12%
Eimeria tenella; 10 ppm in feed
  oocyst in % of inf. control ten.: 0%
Eimeria tenella; [3]
  oocyst in % of inf. control ten.: 1%
Eimeria tenella; Dose 5 ppm
  Efficacy against Eimeria tenella (grade): 1
Eimeria tenella; Dose 10 ppm
  Efficacy against Eimeria tenella (grade): 2
Eimeria tenella; Dose 25 ppm
  Efficacy against Eimeria tenella (grade): 1

## Cc1oc(=O)oc1Cn1c(C(F)(F)F)nc2cc(Cl)c(C(F)(F)F)cc21 [Example 18]
[1]; 5 ppm in feed
  % efficacy tot.: 7%
  mortality %: 0%
  mortality n (died/employed): 0/3
  oocyst in % of inf. control tot.: >100%
  weight % of not inf. control: 33%
  dropping scores: 6
  lesion score: 6
[1]; 10 ppm in feed
  % efficacy tot.: 5%
  mortality %: 0%
  mortality n (died/employed): 0/3
  oocyst in % of inf. control tot.: >100%
  weight % of not inf. control: 30%
  dropping scores: 6
  lesion score: 6
[1]; 25 ppm in feed
  % efficacy tot.: 75%
  mortality %: 0%
  mortality n (died/employed): 0/3
  oocyst in % of inf. control tot.: 1%
  weight % of not inf. control: 82%
  dropping scores: 1
  lesion score: 3
Eimeria maxima; 5 ppm in feed
  oocyst in % of inf. control max.: >100%
Eimeria maxima; 10 ppm in feed
  oocyst in % of inf. control max.: 0%
Eimeria maxima; 25 ppm in feed
  oocyst in % of inf. control max.: 20%
Eimeria maxima; Dose 5 ppm
  Efficacy against Eimeria maxima (grade): 0
Eimeria maxima; Dose 10 ppm
  Efficacy against Eimeria maxima (grade): 0
Eimeria maxima; Dose 25 ppm
  Efficacy against Eimeria maxima (grade): 1
Eimeria acervulina; 5 ppm in feed
  oocyst in % of inf. control ac.: >100%
Eimeria acervulina; 10 ppm in feed
  oocyst in % of inf. control ac.: >100%
Eimeria acervulina; 25 ppm in feed
  oocyst in % of inf. control ac.: 0%
Eimeria acervulina; Dose 5 ppm
  Efficacy against Eimeria acervulina (grade): 0
Eimeria acervulina; Dose 10 ppm
  Efficacy against Eimeria acervulina (grade): 0
Eimeria acervulina; Dose 25 ppm
  Efficacy against Eimeria acervulina (grade): 2
Eimeria tenella; 5 ppm in feed
  oocyst in % of inf. control ten.: >100%
Eimeria tenella; 10 ppm in feed
  oocyst in % of inf. control ten.: >100%
Eimeria tenella; 25 ppm in feed
  oocyst in % of inf. control ten.: 1%
Eimeria tenella; Dose 5 ppm
  Efficacy against Eimeria tenella (grade): 0
Eimeria tenella; Dose 10 ppm
  Efficacy against Eimeria tenella (grade): 0
Eimeria tenella; Dose 25 ppm
  Efficacy against Eimeria tenella (grade): 2
